One may read the IC50 as the concentration needed to halve the response being measured.

Data set [1] has as its target T1, ABCG2 (Homo sapiens, UniProt Q9UNQ0).
T1 sequence (Q9UNQ0 1-655): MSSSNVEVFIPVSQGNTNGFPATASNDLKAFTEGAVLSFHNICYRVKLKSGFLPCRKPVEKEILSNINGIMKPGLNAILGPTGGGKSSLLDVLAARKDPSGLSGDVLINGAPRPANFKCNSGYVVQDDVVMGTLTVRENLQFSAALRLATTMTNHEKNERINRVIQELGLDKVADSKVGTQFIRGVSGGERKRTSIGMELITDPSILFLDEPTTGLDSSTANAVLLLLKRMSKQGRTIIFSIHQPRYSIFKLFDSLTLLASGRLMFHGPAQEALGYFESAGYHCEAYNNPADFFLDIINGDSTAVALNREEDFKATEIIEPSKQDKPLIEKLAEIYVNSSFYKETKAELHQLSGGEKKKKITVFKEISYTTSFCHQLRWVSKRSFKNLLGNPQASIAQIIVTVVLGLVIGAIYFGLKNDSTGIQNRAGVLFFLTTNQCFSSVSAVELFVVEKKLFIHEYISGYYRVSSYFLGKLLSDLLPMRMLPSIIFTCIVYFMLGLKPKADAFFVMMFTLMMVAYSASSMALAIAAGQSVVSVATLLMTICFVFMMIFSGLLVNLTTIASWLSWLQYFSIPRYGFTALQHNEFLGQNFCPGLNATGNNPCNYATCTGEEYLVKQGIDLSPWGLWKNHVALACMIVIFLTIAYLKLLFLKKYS
Details: expressed in transfected cells; host or cells: HEK293. To be noted: read-out: IC50, ability to inhibit ATPase, cited from earlier work.

Data set [2] deals with T1, ABCG2. Details: expressed in transfected cells; host or cells: HEK293. To be noted: reference (23); read-out: IC50, pheophorbide A fluorescent dye uptake assay; cited from earlier work.
Data set [3] deals with T1, ABCG2. Details: expressed in transfected cells; host or cells: HEK293. To be noted: cited from earlier work.
Data set [4] relates to ABCG2-overexpressing NCI-H460/MX20 cells.
Data set [5] addresses T1, ABCG2. In words: Bioluminescence imaging (BLI) assay in HEK293/ABCG2/fLuc cells. The gist of the method:
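Light output from HEK293/ABCG2/fLuc cells plated at 4×10^4 per well, treated with compounds, imaged every 5 min for ~1 h. Values are signal-to-background ratios versus solvent control at 40 min, indicating ABCG2 inhibition. Dose range 0.001 μM-100 μM with 50 μg/mL D-luciferin for selected compounds.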

Data set [6] concerns the target T2, MRP1 (Multiple Drug Resistance Protein 1) (Homo sapiens, UniProt P33527).
T2 construct: expressed in transfected cells; host or cells: MDCKII
In words: Colchicine resensitization assay in MDCKII cells overexpressing MRP1. The conditions noted are these: for MRP1 inhibition: even at relatively high concentration (30 μM). It is filed as cell-based. The procedure:
The ABC transporter-inhibiting ability of the potential inhibitors identified were further tested by evaluating their ability to resensitize ABCG2-overexpressing NCI-H460/MX20 cells to MTX, or MDCKII cells overexpressing Pgp or MRP1, to Col. Cells were plated in 96-well plates at 1×10^4 per well and allowed to attach. […] Colchicine was added at 1 μM for MDCKII/Pgp cells and 0.3 μM for MDCKII/MRP1 cells. […] In brief, 1 mg/ml XTT (Polysciences, Warrington, Pa.) was mixed with 0.025 mM PMS (Sigma), and 50 μl of the mixture was added to each well and incubated for 4 hours at 37° C. After the plates were mixed on a plate shaker, absorbance at 450 nm was measured. All results were normalized to a percentage of absorbance obtained in controls.
MDCKII cells overexpressing Pgp or MRP1 were incubated for two days in medium containing 1 μM (for Pgp) or 0.3 μM (for MRP1) Col and increasing concentrations of each ABCG2 inhibitor.

For data set [7], the target named is T1, ABCG2. The conditions noted are these: 1 h, 20 μM.
Data set [8] addresses T1, ABCG2. Kind of data set: BODIPY-prazosin uptake assay (flow cytometry) in HEK293/ABCG2 cells. To be noted: compound 20 μM; for BP (BODIPY-prazosin dye uptake assay): 1 h; for BODIPY-prazosin assay result: flow cytometry. (In general: A flow cytometer gives signals particle by particle.)
For a further data set, the system named is NCI-H460 parent line. In words: MTX survival of parent NCI-H460 cells (XTT). To be noted: three days. The data set is classed as cell-based, human.

Where a name gives a salt, the structure may show the parent alone. Read-outs that look alike come from different tables or passages of the source.

T2 sequence (P33527 whole entry): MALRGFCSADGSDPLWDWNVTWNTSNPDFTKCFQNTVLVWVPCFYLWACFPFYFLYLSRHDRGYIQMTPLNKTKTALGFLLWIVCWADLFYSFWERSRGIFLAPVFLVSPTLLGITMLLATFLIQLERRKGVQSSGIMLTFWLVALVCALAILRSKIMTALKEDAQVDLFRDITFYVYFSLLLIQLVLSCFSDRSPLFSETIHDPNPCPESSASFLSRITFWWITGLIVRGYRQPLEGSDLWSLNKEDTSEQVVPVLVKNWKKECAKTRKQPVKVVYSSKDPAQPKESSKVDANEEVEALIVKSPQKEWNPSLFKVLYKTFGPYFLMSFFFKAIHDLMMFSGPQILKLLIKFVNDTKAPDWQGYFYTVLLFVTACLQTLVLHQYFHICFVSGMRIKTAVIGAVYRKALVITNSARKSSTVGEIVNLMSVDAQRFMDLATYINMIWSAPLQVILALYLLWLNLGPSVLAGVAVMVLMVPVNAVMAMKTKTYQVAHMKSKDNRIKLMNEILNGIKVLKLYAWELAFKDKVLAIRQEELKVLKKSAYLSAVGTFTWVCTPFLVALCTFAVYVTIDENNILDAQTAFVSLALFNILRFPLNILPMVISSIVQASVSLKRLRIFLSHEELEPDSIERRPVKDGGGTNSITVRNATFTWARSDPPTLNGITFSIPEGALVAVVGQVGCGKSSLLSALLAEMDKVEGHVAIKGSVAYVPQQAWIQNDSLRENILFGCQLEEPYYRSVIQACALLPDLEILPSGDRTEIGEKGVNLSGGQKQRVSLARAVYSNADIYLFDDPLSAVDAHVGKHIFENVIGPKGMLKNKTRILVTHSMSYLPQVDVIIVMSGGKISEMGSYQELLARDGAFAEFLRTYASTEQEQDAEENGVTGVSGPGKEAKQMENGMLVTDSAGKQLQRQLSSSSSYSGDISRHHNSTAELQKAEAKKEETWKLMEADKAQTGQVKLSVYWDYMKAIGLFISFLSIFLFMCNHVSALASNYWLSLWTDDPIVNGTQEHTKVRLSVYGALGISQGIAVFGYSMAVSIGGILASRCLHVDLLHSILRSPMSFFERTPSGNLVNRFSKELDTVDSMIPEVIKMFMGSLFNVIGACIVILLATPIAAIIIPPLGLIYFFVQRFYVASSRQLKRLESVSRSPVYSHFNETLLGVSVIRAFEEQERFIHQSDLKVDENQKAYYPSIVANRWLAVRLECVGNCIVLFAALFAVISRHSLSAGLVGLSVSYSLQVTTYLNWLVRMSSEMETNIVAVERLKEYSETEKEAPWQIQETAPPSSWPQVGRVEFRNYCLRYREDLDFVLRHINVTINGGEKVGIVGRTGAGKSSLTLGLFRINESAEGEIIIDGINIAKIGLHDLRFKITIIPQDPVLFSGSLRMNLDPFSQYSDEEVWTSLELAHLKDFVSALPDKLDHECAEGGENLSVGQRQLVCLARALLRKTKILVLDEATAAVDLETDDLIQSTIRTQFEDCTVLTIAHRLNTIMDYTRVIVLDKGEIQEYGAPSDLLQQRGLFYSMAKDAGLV

As to `COc1ccc2c3c([nH]c2c1)[C@H](C=C(C)C)N1C(=O)[C@@H]2CCCN2C(=O)[C@@H]1C3` [FTC, Fumitremorgin C], the IC50 at ABCG2 [1] (Ozvegy et al. (21)) is 1300 nM; on ABCG2 [1] (Ozvegy et al. (22)), 400 nM; on ABCG2 [1] (Robey et al. (13)) it was 1000 nM; at ABCG2 [2], 800 nM; on ABCG2 [3] (literature, read-out: IC50 values reported in literature) it was 300 to 1300 nM; on ABCG2 [5] (read-out: IC50 as an ABCG2 inhibitor (BLI), same assay, using the 30 min data), 6600 nM. For the same compound, the “concentration at which the plateau of the ABCG2-inhibiting effect is reached” value at ABCG2 [3] (previous reports) is 10 µM. Besides, the “resensitization of H460/MX20 cells to MTX” value in data set [4] (FTC positive control (10 μM), MTX 15 or 30 μM, three days) is “restored the sensitivity of H460/MX20 cells to MTX and significantly reduced their survival rate”.
Regarding `O=C(OCC(O)CO)c1ccccc1Nc1ccnc2cc(Cl)ccc12` (stereo not drawn) [glafenine], in data set [6] (0.3 μM Col, two days), the “concentration from which MDCKII/MRP1 cells are resensitized to Col” value was determined as 10 µM. In data set [4], the “MTX (mitoxantrone resensitization assay)” value is recorded as “Y”; the “concentration that effectively resensitizes H460/MX20 cells to MTX” value was no more than 0.001 µM; the “relative potency in dose-dependent MTX resensitization” value is “more potent ABCG2 inhibitor than FTC, doxazosin mesylate, clebopride maleate, and flavoxate hydrochloride”; the “survival of H460/MX20 cells” value was 13%. Moreover, the midpoint of inhibition against ABCG2 [5], the IC50, lay at 3200 nM. Also, at ABCG2 [5] (human, 40 min, 17 μM), the “BLI signal enhancement” value is on record as roughly 20 fold; the “Fold (BLI enhancement), previously unknown compounds” value (from here on “Fold (BLI enhancement)”) amounted to 20.6 fold; the “Fold (BLI enhancement, S/B ratio over control)” value amounted to 20.6 fold.
Regarding `Cc1c(-c2ccccc2)oc2c(C(=O)OCCN3CCCCC3)cccc2c1=O` [flavoxate hydrochloride], in data set [6], the MRP1 inhibition entry was “weak”. The “MTX (mitoxantrone resensitization assay)” value in [4] (H460/MX20 cells with MTX) is “Y”. The compound also came in with an IC50 at ABCG2 [5] of 20000 nM. At ABCG2 [5] (human, 40 min, 17 μM), the “Fold (BLI enhancement)” value is reported as 11.2 fold and the “Fold (BLI enhancement, S/B ratio over control)” value is on record as 11.2 fold.
`CCN(CC)CCCC(C)Nc1c2ccc(Cl)cc2nc2ccc(OC)cc12` (stereo not drawn) [quinacrine]: the “cytotoxicity in the MTX resensitization assay” value in [4] is “too cytotoxic to be tested”. Further, at ABCG2 [5] (human, 40 min, 17 μM), the “Fold (BLI enhancement)” value amounted to 10.6 fold and the “Fold (BLI enhancement, S/B ratio over control)” value is reported as 10.6 fold. In addition, the BODIPY-prazosin assay result at ABCG2 [7] is recorded as “confirmed as an ABCG2 inhibitor”.
For verteporfin, the “MTX (mitoxantrone resensitization assay)” value in data set [4] (H460/MX20 cells with MTX) is recorded as “Y”. Besides, in data set [4] (compound 1 μM with 15 μM MTX, two days), the “resensitization of H460/MX20 cells to MTX” value is “showed resensitization of H460/MX20 cells to MTX”. Besides, the “cytotoxicity in the MTX resensitization assay” value in data set [4] (compound 20 μM, H460/MX20 cells) was “too cytotoxic to be tested”; in [4] (compound 20 μM, H460/MX20 cells, listed as Verteporfin), “too cytotoxic to validate by MTX assay”. For the same compound, the “Fold (BLI enhancement, S/B ratio over control)” value on ABCG2 [5] (Table 2, HEK293/ABCG2/fLuc cells, compound approximately 17 μM, ~50 μg/mL D-luciferin, 40 min time point) was determined as 11.3 fold. Also, the “Fold (BLI enhancement)” value at ABCG2 [5] (Table 4, approximately 17 μM, 40 min time point) amounted to 11.3 fold. The “BP (BODIPY-prazosin dye uptake assay)” value at ABCG2 [8] is “N”. Further, the BODIPY-prazosin assay result on ABCG2 [8] is “negative”.
With `C=C(C)[C@H]1Cc2c(ccc3c2O[C@@H]2COc4cc(OC)c(OC)cc4[C@@H]2C3=O)O1` [rotenone], the “MTX (mitoxantrone resensitization assay)” value in data set [4] is on record as “Y”. Besides, on ABCG2 [5] (human), the “Fold (BLI enhancement)” value was 6.7 fold and the “Fold (BLI enhancement, S/B ratio over control)” value worked out at 6.7 fold. For the same compound, on ABCG2 [8], the “BP (BODIPY-prazosin dye uptake assay)” value is “Y” and the BODIPY-prazosin assay result was “positive”.
On to `CC(C)(C(=O)c1cccnc1)c1cccnc1` [metyrapone, 2-methyl-1,2-dipyridin-3-yl-propan-1-one], for which the “MTX (mitoxantrone resensitization assay)” value in [4] (H460/MX20 cells with MTX) is given as “Y”. For the same compound, on ABCG2 [5] (human, 40 min, 17 μM), the “Fold (BLI enhancement)” value is reported as 6.3 fold and the “Fold (BLI enhancement, S/B ratio over control)” value was determined as 6.3 fold.
On to `COc1cc(N)c(Cl)cc1C(=O)NC1CCN(Cc2ccccc2)CC1` [clebopride maleate], for which the MRP1 inhibition entry in [6] is listed as “weak”. Moreover, in data set [4] (H460/MX20 cells with MTX), the “MTX (mitoxantrone resensitization assay)” value is on record as “Y”. The compound also displayed an IC50 on ABCG2 [5] of 8200 nM. At ABCG2 [5] (human, 40 min, 17 μM), the “Fold (BLI enhancement)” value is reported as 7.9 fold and the “Fold (BLI enhancement, S/B ratio over control)” value is 7.9 fold.
Turning to `O=C1c2c(O)ccc(O)c2C(=O)c2c(NCCNCCO)ccc(NCCNCCO)c21` [MTX, mitoxantrone], the “survival of H460/MX20 cells” value in data set [4] (15 μM MTX alone, three days) is 80%; in data set [4] (30 μM MTX alone, three days), roughly 40%. Also, the “survival of parent cells” value is reported as less than 20% in the data set with NCI-H460 parent line (15 μM MTX alone) and roughly 9% in the data set with NCI-H460 parent line (30 μM MTX alone).

(Values after patent US20150148256A1, “BIOLUMINESCENCE IMAGING-BASED SCREENING ASSAY AND INHIBITORS OF ABCG2” (THE JOHNS HOPKINS UNIVERSITY, priority 2008, published 2015).)
